Experimental findings from patent publication US11360080B2, “AhR-ROR-γt complex as a biomarker and therapeutic target for autoimmune disease and IL-17A-associated disease” (NATIONAL HEALTH RESEARCH INSTITUTES, priority 2018, dated 2022) are described below.

For assay [1], the system named is AhR-RORγt complex. Nature of the assay: Proximity ligation assay (PLA) in peripheral blood T cells of SLE and RA patients. The assay is classed as cell-based, human. Conditions: 5 μM for 30 min. As for the experimental part:
(A) Luciferase activity of NF-κB-driven reporter assays in stable GLK-transfected CHO-K1 cells that were treated with or without the GLK inhibitor C1 (verteporfin) under the indicated concentration. The fold changes are presented relative to the value of vector control. (B) Recombinant proteins of GLK kinase domain plus recombinant proteins of GST-tagged kinase-dead PKCθ (K409W) were subjected to in vitro kinase assays in the presence or absence of the GLK inhibitor C1 (verteporfin). Means±SD of are shown. *, P value<0.05; **, P value<0.01 (two-tailed Student's t-test). (C) The AhR-RORγt complex was inhibited by the GLK inhibitor. […] (D) Quantification of the PLA signals of (C). […]
PLA assays were performed using the DUOLINK® In Situ Red Starter kit (Sigma) according to the manufacturer's instructions. […] After ligation and amplification reactions, the PLA signals from each pair of PLA probes in close proximity (<40 nm) were visualized as individual red dots by a fluorescence microscope (Leica DM2500) or a confocal microscope (Leica TCS SP5II). […]
T cells of Lck-GLK transgenic mice, GLK-overexpressing T cells, activated T cells or AhR+RORγt+IKKβ-overexpressing cells were used. […] After ligation and amplification reactions, the PLA signals from each pair of PLA probes in close proximity ([…]) were visualized as individual red dots by a fluorescence or a confocal microscope. […]

The subject of assay [2] is murine primary T cells. Put plainly: ELISA of cytokines in supernatants of murine primary T cells stimulated with anti-CD3/CD28. As to conditions: 5 μM or 10 μM for 3 days. The assay is classed as cell-based, mouse. How it is done: Means±SD are shown, (b) ELISA of IL-17A in supernatants of human T cells. T cells were stimulated with anti-CD3/CD28 and treated with C1 (verteporfin) (1 μM or 5 μM) or C2 (1 μM or 5 μM) for 3 days. HC, healthy control; SLE, systemic lupus erythematosus; RA, rheumatoid arthritis; AS, ankylosing spondylitis; PsA, psoriatic arthritis; PSS, primary Sjögren's syndrome. Means±SD are shown. C1 denotes verteporfin; C2 denotes alexidine dihydrochloride.
We further studied whether IL-17A production is abolished by the inhibitors of GLK-induced AhR-RORγt complex in human and murine T cells. We first tested the inhibitor experiment using murine T cells stimulated with TCR signaling (anti-CD3 plus anti-CD28 antibodies). […] Next, we studied the blocking effect of IL-17 production by the treatment of C1 (verteporfin) or C2 (alexidine dihydrochloride) using human peripheral blood T cells. […] Taken together, GLK inhibitors (verteporfin and alexidine dihydrochloride) inhibit GLK-induced AhR-RORγt complex and IL-17A production in human autoimmune patient T cells, as well as the disease severity of autoimmune animal models. Thus, GLK, GLK signaling, or GLK-induced AhR-RORγt complex can be a promising therapeutic target for autoimmune diseases.

Assay [3] addresses T1, GLK dimers (Homo sapiens, UniProt Q8IVH8).
T1 construct: expressed in transfected cells; host or cells: HEK293T
Put plainly: Co-immunoprecipitation of Flag-tagged GLK and GFP-fusion GLK in HEK293T cells. The assay is classed as cell-based. As to conditions: HEK293T co-IP. The text has this:
(A) The molecular docking of GLK kinase domain structure with C1 (verteporfin). A three-dimensional structure model depicts the binding of C1 to the predicted GLK kinase domain containing phosphorylated Ser-170. The putative binding affinity was −7.4 kcal/mol. (B) The molecular docking of GLK kinase domain structure with C2 (alexidine dihydrochloride). A three-dimensional structure model depicts the binding of C2 to the predicted GLK kinase domain containing phosphorylated Ser-170. The putative binding affinity was −7.0 kcal/mol. (C) Co-immunoprecipitation (co-IP) of Flag-tagged GLK and GFP-fusion GLK using lysates of HEK293T cells co-transfected with Flag-GLK and GFP-GLK plasmids. Cells were treated with C1 (verteporfin) or C2 (alexidine dihydrochloride). (D) Administration of the GLK inhibitor C1 (0.556 nmole/g) or C2 (0.085 nmole/g) every 3 days for 30 days in the LLC/luc metastatic lung cancer mouse model. (E) The luciferase activity in mice treated with C1 (verteporfin), C2 (alexidine dihydrochloride), or vehicle was detected by IVIS Spectrum. (F) Luminescent intensity of photons emitted from LLC/luc cells in the images in (e) was quantified. (G) Representative immunohistochemistry of H&E in lung tissues from mice treated with C1 (verteporfin), C2, or vehicle. Scale bar, 0.5 cm. […]

T1 sequence (Q8IVH8 whole entry): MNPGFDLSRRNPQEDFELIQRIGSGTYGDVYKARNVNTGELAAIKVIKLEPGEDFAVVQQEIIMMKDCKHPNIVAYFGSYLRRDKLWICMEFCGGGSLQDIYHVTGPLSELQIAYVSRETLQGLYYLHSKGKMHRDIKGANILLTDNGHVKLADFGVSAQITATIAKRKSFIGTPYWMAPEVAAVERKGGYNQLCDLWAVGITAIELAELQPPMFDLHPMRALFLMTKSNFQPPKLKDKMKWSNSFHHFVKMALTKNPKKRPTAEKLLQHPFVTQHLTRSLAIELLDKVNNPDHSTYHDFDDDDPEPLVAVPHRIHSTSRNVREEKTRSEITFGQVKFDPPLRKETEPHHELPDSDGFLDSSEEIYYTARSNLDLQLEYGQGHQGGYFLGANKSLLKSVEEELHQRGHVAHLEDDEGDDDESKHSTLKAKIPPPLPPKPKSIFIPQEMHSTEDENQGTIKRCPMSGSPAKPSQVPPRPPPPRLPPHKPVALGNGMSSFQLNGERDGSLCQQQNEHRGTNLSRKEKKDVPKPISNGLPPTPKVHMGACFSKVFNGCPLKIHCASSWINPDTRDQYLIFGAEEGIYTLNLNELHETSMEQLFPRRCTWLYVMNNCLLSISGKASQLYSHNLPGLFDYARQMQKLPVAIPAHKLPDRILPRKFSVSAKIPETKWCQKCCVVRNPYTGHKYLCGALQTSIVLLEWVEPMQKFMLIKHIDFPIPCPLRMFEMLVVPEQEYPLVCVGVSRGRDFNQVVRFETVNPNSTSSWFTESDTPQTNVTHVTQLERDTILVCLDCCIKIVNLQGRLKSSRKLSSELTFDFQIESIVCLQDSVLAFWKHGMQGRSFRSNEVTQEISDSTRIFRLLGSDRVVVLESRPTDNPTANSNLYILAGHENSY

Turning to `C=Cc1c(C)c2cc3nc(cc4[nH]c(cc5nc(cc1[nH]2)C(C)=C5CCC(=O)O)c(CCC(=O)OC)c4C)[C@@]1(C)C3=CC=C(C(=O)OC)[C@H]1C(=O)OC` [C1, verteporfin], in assay [1], the “AhR-RORγt complex in T cells from SLE and RA patients” value is reported as “blocked”; the “PLA signals (quantification) of AhR with RORγt or phospho-RORγt (S489)” value is “inhibited”. For the same compound, in assay [2], the “TCR-induced IFN-γ level” value is “partially reduced”, the “TCR-induced IL-17A production” value is given as “drastically abolished”, the “TCR-induced IL-17B level” value is “not decreased” and the “TCR-induced IL-17E level” value is on record as “not decreased”. Also, in assay [2], the “TCR-induced IL-17F level” value was “not decreased” and the “TCR-induced TNF-α level” value is listed as “partially reduced”. The “dimerization of Flag-tagged GLK protein and GFP-GLK fusion protein” value in assay [3] is given as “blocked”.
